The source of these data is publication PMC5247677 (Scientific Reports, 2017).

In data set [1] the target is T1, hNaV1.1 (Homo sapiens, UniProt P35498).
T1 construct: host or cells: HEK293
As to the kind of experiment: cell-based. The settings on record: whole cell electrophysiology, HEK293; pH 7.4, 0.1% BSA; holding −80 mV, test −20 mV; incubation 5–40 min; mean ± SEM, n = 3–9 cells; read-out: pIC50 at hNaV1.1 (converted).

For data set [2], the target named is α3 nAChR (Homo sapiens, UniProt P32297). Nature of the data set: FLIPR calcium responses in SH-SY5Y cells, α3 nAChR. It is filed as cell-based. Conditions: FLIPR Tetra, nicotine 30 μM, 0.1–10 μM, 5 min pre-treatment.
Sequence of α3 nAChR (P32297 32-505): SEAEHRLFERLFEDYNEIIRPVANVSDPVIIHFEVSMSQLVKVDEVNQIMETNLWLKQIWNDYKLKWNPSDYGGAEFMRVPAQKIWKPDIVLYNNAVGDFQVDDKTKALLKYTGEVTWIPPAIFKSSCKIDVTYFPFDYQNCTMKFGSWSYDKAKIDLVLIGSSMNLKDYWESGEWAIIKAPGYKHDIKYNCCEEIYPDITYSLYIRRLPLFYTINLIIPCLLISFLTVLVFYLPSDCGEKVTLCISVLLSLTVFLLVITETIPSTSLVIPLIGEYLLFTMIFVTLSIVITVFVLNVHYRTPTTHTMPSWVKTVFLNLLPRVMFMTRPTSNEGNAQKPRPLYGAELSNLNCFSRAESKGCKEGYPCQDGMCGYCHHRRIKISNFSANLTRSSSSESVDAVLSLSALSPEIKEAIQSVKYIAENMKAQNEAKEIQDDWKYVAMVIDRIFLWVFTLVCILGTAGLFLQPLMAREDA
Data set [3] deals with T2, hNaV1.5 (Homo sapiens, UniProt Q14524).
T2 construct: host or cells: HEK293
As to the kind of experiment: cell-based. The settings on record: whole cell electrophysiology, HEK293; pH 7.4, 0.1% BSA; holding −80 mV, test −20 mV; incubation 5–40 min; mean ± SEM, n = 3–9 cells; read-out: pIC50 at hNaV1.5 (converted).

In data set [4] the target is α7 nAChR (Homo sapiens, UniProt P36544). As to the kind of experiment: FLIPR calcium responses in SH-SY5Y cells, α7 nAChR. Type of data set: cell-based. Conditions: FLIPR Tetra, choline with PNU120596, 0.1–10 μM, 5 min pre-treatment.
Sequence of α7 nAChR (P36544 23-502): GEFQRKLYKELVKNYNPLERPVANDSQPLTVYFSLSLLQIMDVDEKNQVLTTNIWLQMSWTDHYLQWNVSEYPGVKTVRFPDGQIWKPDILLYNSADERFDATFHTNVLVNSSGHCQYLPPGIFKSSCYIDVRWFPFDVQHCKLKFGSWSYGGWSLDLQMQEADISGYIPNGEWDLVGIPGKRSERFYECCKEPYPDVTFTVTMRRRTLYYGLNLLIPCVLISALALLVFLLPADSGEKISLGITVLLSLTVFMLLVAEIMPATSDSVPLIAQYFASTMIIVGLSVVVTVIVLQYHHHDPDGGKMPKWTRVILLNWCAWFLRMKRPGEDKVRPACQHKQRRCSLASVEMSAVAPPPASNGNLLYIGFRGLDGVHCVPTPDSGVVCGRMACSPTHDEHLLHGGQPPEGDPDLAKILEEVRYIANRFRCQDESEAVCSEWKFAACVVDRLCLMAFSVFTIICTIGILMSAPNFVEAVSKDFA
The target of data set [5] is T3, hNaV1.4 (Homo sapiens, UniProt P35499).
T3 construct: host or cells: HEK293
As to the kind of experiment: cell-based. The settings on record: whole cell electrophysiology, HEK293; pH 7.4, 0.1% BSA; holding −80 mV, test −20 mV; incubation 5–40 min; mean ± SEM, n = 3–9 cells; read-out: pIC50 at hNaV1.4 (converted).

The subject of data set [6] is motor performance in rats. It is filed as in vivo, rat (Sprague Dawley). The procedure:
FCA was administered undiluted in a volume of 150 μL by i.pl injection in rats. Behavioural assessment was performed 3 days post-injection of FCA. For intrathecal administration, a polyethylene lumbar catheter was inserted into the intrathecal space between vertebrae L4–L5. […] Mechanical paw withdrawal thresholds were determined using manual von Frey with a series of calibrated filaments 0.4–15.1 g (Stoelting Co., Wood Dale, USA) using the up-down method. Paw withdrawal latency to a thermal stimulus was determined using the Hargreaves test (Ugo Basile, Camerio VA, Italy). Motor co-ordination was assessed using an accelerating rotarod (Ugo Basile). Latency to fall was recorded in seconds, with a maximal cut off of 300 s. At the completion of experiments, catheter placement was checked by injection of lignocaine (2%, 10 μL) and observation of rapid bilateral hind limb paralysis.

Data set [7] deals with T4, mNaV1.7 (Mus musculus, UniProt Q62205).
T4 construct: host or cells: HEK293
T4 sequence (Q62205 whole entry): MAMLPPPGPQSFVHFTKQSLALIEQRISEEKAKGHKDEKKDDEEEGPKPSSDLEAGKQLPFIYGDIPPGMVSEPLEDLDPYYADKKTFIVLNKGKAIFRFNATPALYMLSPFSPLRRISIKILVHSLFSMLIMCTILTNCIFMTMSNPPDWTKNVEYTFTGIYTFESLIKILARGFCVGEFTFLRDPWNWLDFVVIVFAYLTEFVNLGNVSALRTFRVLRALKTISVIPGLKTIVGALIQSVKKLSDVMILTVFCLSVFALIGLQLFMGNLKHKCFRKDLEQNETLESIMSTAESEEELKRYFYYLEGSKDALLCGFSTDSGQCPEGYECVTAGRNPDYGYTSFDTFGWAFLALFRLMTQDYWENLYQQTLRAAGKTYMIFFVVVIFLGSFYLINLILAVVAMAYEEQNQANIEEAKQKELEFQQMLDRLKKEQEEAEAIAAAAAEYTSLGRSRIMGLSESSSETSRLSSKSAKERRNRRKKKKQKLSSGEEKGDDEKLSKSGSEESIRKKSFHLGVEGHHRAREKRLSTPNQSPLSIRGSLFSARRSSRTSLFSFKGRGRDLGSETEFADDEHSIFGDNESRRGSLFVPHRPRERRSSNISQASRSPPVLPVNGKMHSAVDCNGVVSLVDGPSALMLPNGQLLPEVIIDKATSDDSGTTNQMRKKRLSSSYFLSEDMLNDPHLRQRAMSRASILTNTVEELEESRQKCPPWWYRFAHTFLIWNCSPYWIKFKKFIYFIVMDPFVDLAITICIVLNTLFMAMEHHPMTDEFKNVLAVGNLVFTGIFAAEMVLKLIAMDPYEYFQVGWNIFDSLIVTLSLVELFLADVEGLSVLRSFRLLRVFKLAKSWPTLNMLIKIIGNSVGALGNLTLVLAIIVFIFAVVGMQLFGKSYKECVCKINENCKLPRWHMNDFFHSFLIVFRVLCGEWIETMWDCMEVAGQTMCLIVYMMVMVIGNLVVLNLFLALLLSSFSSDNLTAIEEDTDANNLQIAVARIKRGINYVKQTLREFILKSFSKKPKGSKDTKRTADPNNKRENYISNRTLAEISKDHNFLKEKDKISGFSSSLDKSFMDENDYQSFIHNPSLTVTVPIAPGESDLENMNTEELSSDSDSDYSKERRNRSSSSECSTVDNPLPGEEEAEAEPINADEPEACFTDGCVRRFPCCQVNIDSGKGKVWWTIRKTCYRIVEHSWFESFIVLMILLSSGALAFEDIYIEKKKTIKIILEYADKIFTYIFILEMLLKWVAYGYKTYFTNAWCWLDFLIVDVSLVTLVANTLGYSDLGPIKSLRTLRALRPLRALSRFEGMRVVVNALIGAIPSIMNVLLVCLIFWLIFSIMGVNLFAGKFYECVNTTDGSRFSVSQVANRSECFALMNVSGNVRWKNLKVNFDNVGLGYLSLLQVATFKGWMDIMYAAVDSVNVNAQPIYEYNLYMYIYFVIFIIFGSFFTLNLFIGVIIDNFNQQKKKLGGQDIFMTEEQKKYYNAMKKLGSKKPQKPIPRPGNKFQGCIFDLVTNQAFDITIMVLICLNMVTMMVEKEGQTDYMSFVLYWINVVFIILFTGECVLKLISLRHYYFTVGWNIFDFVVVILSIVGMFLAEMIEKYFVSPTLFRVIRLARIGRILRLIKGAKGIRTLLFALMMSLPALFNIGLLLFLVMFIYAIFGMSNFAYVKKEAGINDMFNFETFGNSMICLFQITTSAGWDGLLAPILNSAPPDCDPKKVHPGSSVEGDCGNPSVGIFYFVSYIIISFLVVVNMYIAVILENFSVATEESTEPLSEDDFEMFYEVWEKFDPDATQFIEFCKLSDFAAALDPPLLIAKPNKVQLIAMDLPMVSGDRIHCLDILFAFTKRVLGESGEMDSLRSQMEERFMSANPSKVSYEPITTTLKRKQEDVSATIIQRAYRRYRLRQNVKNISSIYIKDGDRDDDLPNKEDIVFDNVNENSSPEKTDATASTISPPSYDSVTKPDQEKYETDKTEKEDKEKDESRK
As to the kind of experiment: Whole-cell patch-clamp (PatchXpress), mNaV1.7. Type of data set: cell-based. The settings on record: HEK293, pH 7.4, holding −120 mV, 20 ms test pulse 0 mV, mean ± SEM, read-out: pIC50 at mouse NaV1.7 (converted).

Data set [8] deals with T5, rKV2.1 (Rattus norvegicus, UniProt P15387).
T5 construct: expressed in transfected cells; host or cells: Xenopus laevis oocytes
Nature of the data set: Two-electrode voltage-clamp in Xenopus oocytes, wild-type rKV2.1. The settings on record: Xenopus laevis oocytes, pH 7.6, 22 °C, 0.1% BSA. It is filed as cell-based. In general terms: In two-electrode clamp one electrode senses voltage and the other passes current.

The target in data set [9] is T6, hNaV1.6 (Homo sapiens, UniProt Q9UQD0).
T6 construct: host or cells: HEK293
As to the kind of experiment: cell-based. The settings on record: whole cell electrophysiology, HEK293; pH 7.4, 0.1% BSA; holding −80 mV, test −20 mV; incubation 5–40 min; mean ± SEM, n = 3–9 cells; read-out: pIC50 at hNaV1.6 (converted).

Data set [10] concerns the target T7, hNaV1.9 (Homo sapiens, UniProt Q9UI33).
T7 construct: host or cells: HEK293
Nature of the data set: cell-based. The settings on record: PatchXpress, HEK293. An excerpt: Data were plotted and analyzed using GraphPad Prism, version 6.0. For concentration-response curves, a four-parameter Hill equation with variable Hill coefficient was fitted to the data. […] Data are presented as mean ± SEM.

Data set [11] concerns NaV1.7. The settings on record: 0.3–3 mg/kg i.p., mice. On the procedure: For behavioural assessment we used adult male C57BL/6 J mice or Sprague Dawley rats aged 5–8 weeks. Animals were housed in groups of 2–4 per cage, under 12 h light-dark cycles with standard rodent chow and water ad libitum. All assessments were performed by a blinded investigator unaware of the treatment each animal received. Ethical approval for in vivo experiments in animals was obtained from the University of Queensland, University of Sydney or United Kingdom Home Office animal ethics committee. Experiments involving animals were conducted in accordance with the International Association for the Study of Pain Guidelines for the Use of Animals in Research and the Australian Code of Practice for the Care and Use of Animals for Scientific Purposes, 8th edition (2013).

Data set [12] addresses T8, rNaV1.7 (Rattus norvegicus, UniProt O08562).
T8 construct: expressed in transfected cells; host or cells: HEK293
As to the kind of experiment: Whole-cell patch-clamp (QPatch-16), rNaV1.7. Type of data set: cell-based. Conditions: QPatch-16, HEK293; pH 7.4, 0.1% BSA; holding −80 mV, test −20 mV; mean ± SEM; read-out: pIC50 at rat NaV1.7 (converted).

Data set [13] concerns the target T9, hNaV1.8 (Homo sapiens, UniProt Q9Y5Y9).
T9 construct: host or cells: CHO
Nature of the data set: cell-based. Conditions: whole cell patch-clamp. Background: In patch-clamp work, channel activity is measured electrically.

For data set [14] the following is noted: precluded chronic testing.
Data set [15] has as its target T10, hNaV1.2 (Homo sapiens, UniProt Q99250).
T10 construct: host or cells: HEK293
As to the kind of experiment: cell-based. Conditions: whole cell electrophysiology, HEK293; pH 7.4, 0.1% BSA; holding −80 mV, test −20 mV; incubation 5–40 min; mean ± SEM, n = 3–9 cells; read-out: pIC50 at hNaV1.2 (converted).

The target of data set [16] is T11, hNaV1.3 (Homo sapiens, UniProt Q9NY46).
T11 construct: host or cells: HEK293
As to the kind of experiment: cell-based. The settings on record: whole cell electrophysiology, HEK293; pH 7.4, 0.1% BSA; holding −80 mV, test −20 mV; incubation 5–40 min; mean ± SEM, n = 3–9 cells; read-out: pIC50 at hNaV1.3 (converted).

Where only a bound is given, the exact number is not on record here.

T8 sequence (O08562 whole entry): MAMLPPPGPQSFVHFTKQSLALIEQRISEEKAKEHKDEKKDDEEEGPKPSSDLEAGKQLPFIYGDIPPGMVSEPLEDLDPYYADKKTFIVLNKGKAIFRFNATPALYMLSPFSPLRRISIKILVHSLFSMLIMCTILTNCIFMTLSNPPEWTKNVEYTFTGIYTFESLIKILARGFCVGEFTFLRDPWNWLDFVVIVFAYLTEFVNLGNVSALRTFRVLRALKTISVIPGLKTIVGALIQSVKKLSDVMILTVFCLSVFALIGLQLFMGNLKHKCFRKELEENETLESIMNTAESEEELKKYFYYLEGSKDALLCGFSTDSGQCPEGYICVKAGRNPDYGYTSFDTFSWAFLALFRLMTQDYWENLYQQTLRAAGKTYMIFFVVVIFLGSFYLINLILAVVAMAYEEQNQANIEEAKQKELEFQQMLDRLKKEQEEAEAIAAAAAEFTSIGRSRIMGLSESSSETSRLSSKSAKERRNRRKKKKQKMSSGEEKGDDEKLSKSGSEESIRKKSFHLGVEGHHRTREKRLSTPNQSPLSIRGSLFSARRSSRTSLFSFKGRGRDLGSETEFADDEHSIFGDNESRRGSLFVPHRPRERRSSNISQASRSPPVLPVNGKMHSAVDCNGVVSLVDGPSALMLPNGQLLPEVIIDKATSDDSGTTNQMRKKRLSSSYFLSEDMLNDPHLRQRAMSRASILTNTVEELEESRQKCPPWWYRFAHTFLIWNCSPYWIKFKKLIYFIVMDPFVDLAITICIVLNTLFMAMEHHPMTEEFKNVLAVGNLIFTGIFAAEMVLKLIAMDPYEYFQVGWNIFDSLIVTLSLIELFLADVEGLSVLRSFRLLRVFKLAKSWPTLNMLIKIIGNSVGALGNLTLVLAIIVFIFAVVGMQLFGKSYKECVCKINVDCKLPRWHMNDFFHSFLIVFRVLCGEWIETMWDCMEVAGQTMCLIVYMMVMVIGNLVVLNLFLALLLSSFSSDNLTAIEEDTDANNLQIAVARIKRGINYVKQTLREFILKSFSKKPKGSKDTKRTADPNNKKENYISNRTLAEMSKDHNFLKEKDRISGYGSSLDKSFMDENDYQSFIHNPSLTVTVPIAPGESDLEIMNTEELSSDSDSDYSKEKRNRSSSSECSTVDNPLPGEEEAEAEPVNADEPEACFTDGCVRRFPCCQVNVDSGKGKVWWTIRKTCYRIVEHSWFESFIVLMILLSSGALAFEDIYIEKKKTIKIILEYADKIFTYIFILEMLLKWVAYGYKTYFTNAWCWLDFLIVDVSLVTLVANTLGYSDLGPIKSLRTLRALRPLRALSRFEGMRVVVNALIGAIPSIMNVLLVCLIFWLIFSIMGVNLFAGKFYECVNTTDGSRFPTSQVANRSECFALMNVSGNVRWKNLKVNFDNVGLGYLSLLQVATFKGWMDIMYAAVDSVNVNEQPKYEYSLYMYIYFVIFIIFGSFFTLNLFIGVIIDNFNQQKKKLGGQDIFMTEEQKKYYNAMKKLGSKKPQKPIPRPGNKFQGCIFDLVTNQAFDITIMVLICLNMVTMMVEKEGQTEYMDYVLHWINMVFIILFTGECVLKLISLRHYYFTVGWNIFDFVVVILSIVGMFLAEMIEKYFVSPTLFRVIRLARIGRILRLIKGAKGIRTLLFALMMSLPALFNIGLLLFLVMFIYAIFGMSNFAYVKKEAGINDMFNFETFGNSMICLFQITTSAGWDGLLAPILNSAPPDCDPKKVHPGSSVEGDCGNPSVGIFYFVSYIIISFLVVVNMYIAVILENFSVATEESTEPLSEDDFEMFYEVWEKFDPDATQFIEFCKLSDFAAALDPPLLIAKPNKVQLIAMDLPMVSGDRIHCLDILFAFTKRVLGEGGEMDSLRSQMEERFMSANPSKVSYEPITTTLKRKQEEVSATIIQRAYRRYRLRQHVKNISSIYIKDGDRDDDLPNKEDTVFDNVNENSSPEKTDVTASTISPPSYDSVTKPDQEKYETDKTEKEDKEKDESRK

With `CSCC[C@@H]1NC(=O)[C@H](Cc2ccc(O)cc2)NC(=O)[C@H](CCCNC(=N)N)NC(=O)[C@@H](NC(=O)[C@@H](N)CC(=O)O)CSSC[C@@H]2NC(=O)[C@@H]3CSSC[C@@H](C(=O)N[C@@H](C)C(=O)N[C@@H](Cc4c[nH]c5ccccc45)C(=O)N[C@@H](CC(=O)O)C(=O)N[C@@H](Cc4ccccc4)C(=O)N[C@H](C(=O)N[C@@H](Cc4ccccc4)C(=O)N[C@H](C(=O)O)[C@@H](C)O)[C@@H](C)O)NC(=O)[C@H](Cc4ccc(O)cc4)NC(=O)[C@H](CCCCN)NC(=O)[C@H](CCSC)NC(=O)[C@H](CCCCN)NC(=O)[C@H](CCCNC(=N)N)NC(=O)[C@H](CCCCN)NC(=O)[C@H](CSSC[C@H](NC(=O)[C@H](CC(=O)O)NC(=O)CNC(=O)[C@H](Cc4ccccc4)NC1=O)C(=O)N[C@@H](CCC(=O)O)C(=O)N[C@@H](CCCCN)C(=O)N[C@@H](CC(=O)O)C(=O)N[C@@H](CCC(=O)O)C(=O)N[C@@H](CC(=O)O)C(=O)N3)NC(=O)CNC(=O)[C@H](CC(C)C)NC(=O)[C@H](Cc1cnc[nH]1)NC(=O)[C@H](CCCCN)NC2=O` [Pn3a, μ-theraphotoxin-Pn3a], the IC50 was 0.0372 µM in data set [1]; > 10 µM in data set [2]; 0.794 µM in [3]; > 10 µM in data set [4]; 0.145 µM in data set [5]; 0.00437 µM in data set [7]. Also, the IC50 in data set [8] is > 0.3 µM; in data set [9], 0.129 µM; in [10], 2.43 µM; in data set [12], 0.00148 µM; in data set [13], 49.9 µM; in data set [15], 0.123 µM. Further, the IC50 in data set [16] was 0.209 µM. The “Rotarod % Baseline” value in data set [6] (0.3 nmoles intrathecal, control 88 ± 7%, P > 0.05, unpaired t-test, n = 4–9) worked out at 91 ± 11%. Besides, in data set [6] (1 nmole intrathecal, rats, data not shown), the motor effect result is reported as “motor impairment was observed”. Besides, the adverse effects entry in data set [11] was “absence of adverse effects”. For the same molecule, in [14], the pharmacokinetics entry is “poor pharmacokinetics”.
